Laboratory results published in patent publication US10106515B2, “1-(cyclopent-2-en-1-yl)-3-(2-hydroxy-3-(arylsulfonyl)phenyl)urea derivatives as CXCR2 inhibitors” (GLAXOSMITHKLINE INTELLECTUAL PROPERTY DEVELOPMENT LIMITED, priority 2014, dated 2018).
Counter-ions that a name gives are not always drawn.

Biological target: T1, recombinant human CXCR2 (Homo sapiens, UniProt P25025)
T1 construct: TEV protease site; Gal4-VP16 transcription factor
T1 sequence (P25025 1-360): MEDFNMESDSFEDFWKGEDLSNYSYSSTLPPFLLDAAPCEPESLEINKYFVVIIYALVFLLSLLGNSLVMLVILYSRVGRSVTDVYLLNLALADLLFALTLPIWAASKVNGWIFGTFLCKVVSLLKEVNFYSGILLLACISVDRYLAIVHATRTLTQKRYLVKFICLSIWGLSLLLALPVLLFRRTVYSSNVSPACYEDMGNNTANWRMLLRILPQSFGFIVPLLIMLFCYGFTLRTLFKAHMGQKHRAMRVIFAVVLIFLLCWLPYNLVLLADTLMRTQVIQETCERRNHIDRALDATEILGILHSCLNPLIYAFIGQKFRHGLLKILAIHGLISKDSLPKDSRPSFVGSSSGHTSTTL
Assay: CXCR2 Tango assay
Format: cell-based
Conditions: mean pIC50 of multiple test results; stimulated with 80 nM hCXCL1; reporter gene blue/green emission ratio; read-out: pIC50 (CXCR2 Tango assay) (converted)
Source text: The assay measures ligand-induced activation of the receptor CXCR2 in a stable cell line containing the recombinant human CXCR2 linked to a TEV protease site and a Gal4-VP16 transcription factor (Invitrogen). Ligand binding to the receptor results in the recruitment of arrestin proteins (tagged with protease) to the receptor and triggers the release of a tethered transcription factor. The transcription factor enters the nucleus and activates the transcription of the reporter gene. The ability of a compound to inhibit CXCR2 activation is indirectly assessed by measuring the reporter gene activity.
A vial of cryopreserved cells was removed from liquid nitrogen and rapidly thawed in a water bath at 37° C. with gentle agitation. The contents of the vial were transferred drop-wise into Thawing Medium in a sterile 15 ml conical tube and then centrifuged at 1000 rpm for 4-5 min. Then the cell pellets were resuspended in Assay Medium at a density of ˜200,000 cells/ml. All test compounds were dissolved in DMSO at a concentration of 10 mM and were prepared in 100% DMSO to provide 10 point dose response curves. A reference CXCR2 antagonist was added to wells in row 2, columns 1-5 & 7-11. Exemplified compounds 1-4, 7, 8-10, 13-22, 24-26, 28-30, 32, 33, 36, 37, 40, 42-44. 95-110, 115-118, 120, 121, 125, 126, 129-134, 137, 138, 140, 142, 147-149, 153-157, 159-162, 163-166, 168, 170, 172, 174-180 and 202 were tested using the CXCR2 antagonist sodium 3-chloro-6-(3-(2,3-dichlorophenyl)ureido)-2-sulfamoylphenolate as reference compound (Reference Compound 1) (published International patent application WO2002/079122). […] Test compounds were added to wells in row 2, columns 13-17 & 19-23 and rows 3-15, columns 1-5 & 7-11/13-17 & 19-23 (columns 6 and 18 as positive controls and un-stimulated controls respectively; columns 12 and 24 as cell-free control). Compounds in solution were added to the assay plate (Greiner 781090) using an Echo (Labcyte) concentration-response program (50 nl/well). The cell-free, un-stimulated and positive controls were loaded with 50 nl/well pure DMSO to ensure that the DMSO concentration was constant across the plate for all assays. Using Multi-drop Combi (Thermo) with standard cassette, 50 μl of Assay Medium was added to each well in the cell-free controls (columns 12 and 24); 50 μl of the cell suspension without hCXCL1 (a CXCR2 ligand) was added to each well in column 18 of the plate (˜10,000 cells per well); and 50 μl of the cell suspension with 80 nM hCXCL1 was added to the rest of wells of the plate (˜10,000 cells per well). The cells were incubated overnight at 37° C./5% CO2. 10 μl of 6× substrate mixture (LiveBLAzer™-FRET B/G substrate (CCF4-AM) Cat # K1096 from Invitrogen, Inc.) was added to each well using Multi-drop Combi (Thermo) with small-tube cassette and the plates incubated at room temperature for 2 h in the dark. The plate was finally read on EnVision using one excitation channel (409 nm) and two emission channels (460 nm and 530 nm).
The blue/green emission ratio (460 nm/530 nm) was calculated for each well, by dividing the background-subtracted Blue emission values by the background-subtracted Green emission values. The dose response curve was based on sigmoidal dose-response model. All ratio data was normalized based upon the maximum emission ratio of positive control (hCXCL1) and minimum emission ratio of negative control (DMSO) on each plate. The intrinsic activity (IA) of each compound would be the normalized percentage of its maximum response after curve fitting.
All exemplified compounds (except for Compounds 203 and 204) were tested in the CXCR2 Tango assay or a similar assay described above. The data mentioned below represents a mean pIC 50 value of multiple test results. It is understood that the data illustrated below may have reasonable variation depending on the specific conditions and procedures used by the person conducting the testing.

IC50 [nM]	Compound
≤ 10	CC1=CCCC1NC(=O)Nc1ccc(Cl)c(S(=O)(=O)C(C)c2ncccn2)c1O (stereo not shown) [Compound 29, 1-(4-chloro-2-hydroxy-3-((1-(pyrimidin-2-yl)ethyl)sulfonyl)phenyl)-3-(2-methylcyclopent-2-en-1-yl)urea, trifluoroacetic acid salt]
≤ 10	CC(c1ncccn1)S(=O)(=O)c1c(Cl)ccc(NC(=O)NC2CCC=C2Cl)c1O (stereo not shown) [Compound 30, 1-(4-chloro-2-hydroxy-3-((1-(pyrimidin-2-yl)ethyl)sulfonyl)phenyl)-3-(2-chlorocyclopent-2-en-1-yl)urea]
≤ 10	CC1=CCC[C@H]1NC(=O)Nc1ccc(Cl)c(S(=O)(=O)C(C)CO)c1O (stereo partly drawn) [Compound 34, 1-(4-chloro-2-hydroxy-3-((1-hydroxypropan-2-yl)sulfonyl)phenyl)-3-((R)-2-methylcyclopent-2-en-1-yl)urea]
≤ 10	CC(F)(F)S(=O)(=O)c1c(Cl)ccc(NC(=O)NC2C=CCC2)c1O (stereo not shown) [Compound 36, 1-(4-chloro-3-((1,1-difluoroethyl)sulfonyl)-2-hydroxyphenyl)-3-(cyclopent-2-en-1-yl)urea]
≤ 1	CC(F)(F)S(=O)(=O)c1c(Cl)ccc(NC(=O)NC2CCC=C2Cl)c1O (stereo not shown) [Compound 37, 1-(4-chloro-3-((1,1-difluoroethyl)sulfonyl)-2-hydroxyphenyl)-3-(2-chlorocyclopent-2-en-1-yl)urea]
≤ 1	CC1(S(=O)(=O)c2c(Cl)ccc(NC(=O)N[C@@H]3CCC=C3Cl)c2O)CC(O)C1 (stereo partly drawn) [Compound 38, (R)-1-(4-chloro-2-hydroxy-3-((3-hydroxy-1-methylcyclobutyl)sulfonyl)phenyl)-3-(2-chlorocyclopent-2-en-1-yl)urea]
≤ 10	CC1(S(=O)(=O)c2c(Cl)ccc(NC(=O)NC3CCC=C3Cl)c2O)CCOCC1 (stereo not shown) [Compound 44, 1-(4-chloro-2-hydroxy-3-((4-methyltetrahydro-2H-pyran-4-yl)sulfonyl)phenyl)-3-(2-chlorocyclopent-2-en-1-yl)urea]
≤ 1	CC1=CCC[C@H]1NC(=O)Nc1ccc(Cl)c(S(=O)(=O)[C@@H]2CCCC[C@H]2O)c1O [Compound 46, 1-(4-chloro-2-hydroxy-3-((trans-2-hydroxycyclohexyl)sulfonyl)phenyl)-3-((R)-2-methylcyclopent-2-en-1-yl)urea]
≤ 1	CC1=CCC[C@H]1NC(=O)Nc1ccc(Cl)c(S(=O)(=O)[C@H]2C[C@H](C(F)F)C2)c1O [Compound 48, 1-(4-chloro-3-((trans-3-(difluoromethyl)cyclobutyl)sulfonyl)-2-hydroxyphenyl)-3-((R)-2-methylcyclopent-2-en-1-yl)urea]
≤ 1	CC1=CCC[C@H]1NC(=O)Nc1ccc(Cl)c(S(=O)(=O)[C@H]2C[C@H](F)C2)c1O [Compound 50, 1-(4-chloro-3-((trans-3-fluorocyclobutyl)sulfonyl)-2-hydroxyphenyl)-3-((R)-2-methylcyclopent-2-en-1-yl)urea]
≤ 1	CC1=CCC[C@H]1NC(=O)Nc1ccc(Cl)c(S(=O)(=O)C2CCC[C@H](O)C2)c1O (stereo partly drawn) [Compound 52, 1-(4-chloro-2-hydroxy-3-((trans-3-hydroxycyclohexyl)sulfonyl)phenyl)-3-((R)-2-methylcyclopent-2-en-1-yl)urea]
≤ 10	CC1=CCC[C@H]1NC(=O)Nc1ccc(Cl)c(S(=O)(=O)C(C)(C)[C@@H]2CCOC2)c1O [Compound 55, 1-(4-chloro-2-hydroxy-3-((2-((R)-tetrahydrofuran-3-yl)propan-2-yl)sulfonyl)phenyl)-3-((R)-2-methylcyclopent-2-en-1-yl)urea]
≤ 1	CC1=CCC[C@H]1NC(=O)Nc1ccc(Cl)c(S(=O)(=O)C(C)(C)C(F)(F)F)c1O [Compound 58, (R)-1-(4-chloro-2-hydroxy-3-((1,1,1-trifluoro-2-methylpropan-2-yl)sulfonyl)phenyl)-3-(2-methylcyclopent-2-en-1-yl)urea]
≤ 1	CC1=CCC[C@H]1NC(=O)Nc1ccc(Cl)c(S(=O)(=O)C(C)(C)C2COC2)c1O [Compound 61, (R)-1-(4-chloro-2-hydroxy-3-((2-(oxetan-3-yl)propan-2-yl)sulfonyl)phenyl)-3-(2-methylcyclopent-2-en-1-yl)urea]
≤ 1	CC1=CCC[C@H]1NC(=O)Nc1ccc(Cl)c(S(=O)(=O)C(F)(F)c2ccccn2)c1O [Compound 63, (R)-1-(4-chloro-3-((difluoro(pyridin-2-yl)methyl)sulfonyl)-2-hydroxyphenyl)-3-(2-methylcyclopent-2-en-1-yl)urea, trifluoroacetic acid salt]
≤ 10	CC1=CCC[C@H]1NC(=O)Nc1ccc(Cl)c(S(=O)(=O)C2(C)CC3(COC3)C2)c1O [Compound 65, (R)-1-(4-chloro-2-hydroxy-3-((6-methyl-2-oxaspiro[3.3]heptan-6-yl)sulfonyl)phenyl)-3-(2-methylcyclopent-2-en-1-yl)urea]
≤ 10	CC1=CCC[C@H]1NC(=O)Nc1ccc(Cl)c(S(=O)(=O)C2(C)CCN(C3CCC3)CC2)c1O [Compound 67, (R)-1-(4-chloro-3-((1-cyclobutyl-4-methylpiperidin-4-yl)sulfonyl)-2-hydroxyphenyl)-3-(2-methylcyclopent-2-en-1-yl)urea, trifluoroacetic acid salt]
≤ 1	CC1=CCC[C@H]1NC(=O)Nc1ccc(Cl)c(S(=O)(=O)C2(F)CCN(C3CCC3)CC2)c1O [Compound 73, (R)-1-(4-chloro-3-((1-cyclobutyl-4-fluoropiperidin-4-yl)sulfonyl)-2-hydroxyphenyl)-3-(2-methylcyclopent-2-en-1-yl)urea, trifluoroacetic acid salt]
≤ 1	CC1=CCC[C@H]1NC(=O)Nc1ccc(Cl)c(S(=O)(=O)C2(F)CCOC2)c1O (stereo partly drawn) [Compound 74, 1-(4-chloro-3-((3-fluorotetrahydro-furan-3-yl)sulfonyl)-2-hydroxyphenyl)-3-((R)-2-methylcyclopent-2-en-1-yl)urea]
≤ 1	CC1=CCC[C@H]1NC(=O)Nc1ccc(Cl)c(S(=O)(=O)C2CC3(COC3)C2)c1O [Compound 77, (R)-1-(3-(2-oxaspiro[3.3]heptan-6-ylsulfonyl)-4-chloro-2-hydroxyphenyl)-3-(2-methylcyclopent-2-en-1-yl)urea]
≤ 10	CC1=CCC[C@H]1NC(=O)Nc1ccc(Cl)c(S(=O)(=O)C2CCN(CC(F)F)CC2)c1O [Compound 80, (R)-1-(4-chloro-3-((1-(2,2-difluoroethyl)piper-idin-4-yl)sulfonyl)-2-hydroxyphenyl)-3-(2-methylcyclopent-2-en-1-yl)urea trifluoroacetic acid salt]

Compound	IC50 [nM]
[2H]C1(S(=O)(=O)c2c(Cl)ccc(NC(=O)N[C@@H]3CCC=C3C)c2O)CCN(C2CCC2)CC1 [Compound 81, (R)-1-(4-chloro-3-((1-cyclobutylpiperidin-4-yl)sulfonyl)-2-hydroxyphenyl)-3-(2-methylcyclopent-2-en-1-yl)urea-d1, trifluoroacetic acid salt]	≤ 1
